Data as given in patent publication US20040063651A1, “Remedies for hepatitis c” (priority 2000, published 2004).

Legend:
MT-2C cells = assay: Yield of total cellular RNA of HCV-infected MT-2C cells (cell injury); type: cell-based, human; settings: 0.1-10 μM compound, 7 days culture
Method: MT-2C cells that are cells derived from human T cells (Kato, N. et. al., Biochem. Biophs. Res. Commun. 206, 863-869, 1995) were cultured in an RPMI 1640 medium (Gibco-BRL 11875-101) supplemented with FBS (Foetal Bovine Serum, Gibco-BRL10082-147) at 10%. Thus cultured MT-2C cells (1×10^6 cells) were suspended in 200 uL of an F-12 medium (Gibco-BRL 11059-029) added with EDTA (ethylenediamine tetraacetic acid) to yield final concentration of 5 mM. Thereto was added 20 μL of a serum derived from a hepatitis C patient, followed by infection at 37° C. for 2 hours. After the infection, the cells were washed three times with 1 mL of PBS (Phosphate buffered saline), suspended in 6 mL of an RPMI medium added with FBS at 10%. The suspended cells were seeded on a 48 well culture plate, and incubated in a CO2 incubator at 32° C. for 3 days. Thereto was added the compound of Synthetic Example 1, Synthetic Example 2, Synthetic Example 10 or Synthetic Example 11 dissolved in DMSO (Dimethyl Sulfoxide) in an amount of thousandths of the medium, and the mixture was cultured for 3 days. A medium adjusted to have the same concentration of the identical compound was added to each well in a two-fold volume, followed by an additional culture for 4 days. Cells were harvested for each of the samples, and total cellular RNA was purified. For the RNA purification, ISOGEN (NIPPON GENE, 311-02501) was used. In order to quantitatively determine an HCV RNA genome in the purified RNA, the following operation was carried out.

[1] = test system: proximate viruses of the hepatitis C virus (viruses having (+)-chain single stranded RNA in their genome); settings: cited from earlier work
Hepatitis C Virus (HCV) = assay: Inhibitory effect on HCV proliferation in infected MT-2C cells (nested RT-PCR detection limit dilution of HCV genome); type: cell-based; settings: for detection of HCV genome in diluted RT product: FIG. 2, negative control detected up to 10-fold or 30-fold dilution
Method: Inhibitory effect on HCV proliferation of the compounds of Synthetic Example 1, Synthetic Example 2, Synthetic Example 10 and Synthetic Example 11 described above was measured by the following process.
Measurement of anti HCV proliferation inhibitory activity was performed in accordance with a known process (Kato, N. et. al., Biochem. Biophs. Res. Commun. 206, 863-869, 1995).
MT-2C cells that are cells derived from human T cells (Kato, N. et. al., Biochem. Biophs. Res. Commun. 206, 863-869, 1995) were cultured in an RPMI 1640 medium (Gibco-BRL 11875-101) supplemented with FBS (Foetal Bovine Serum, Gibco-BRL10082-147) at 10%. Thus cultured MT-2C cells (1×10^6 cells) were suspended in 200 uL of an F-12 medium (Gibco-BRL 11059-029) added with EDTA (ethylenediamine tetraacetic acid) to yield final concentration of 5 mM. Thereto was added 20 μL of a serum derived from a hepatitis C patient, followed by infection at 37° C. for 2 hours. After the infection, the cells were washed three times with 1 mL of PBS (Phosphate buffered saline), suspended in 6 mL of an RPMI medium added with FBS at 10%. The suspended cells were seeded on a 48 well culture plate, and incubated in a CO2 incubator at 32° C. for 3 days.
Thereto was added the compound of Synthetic Example 1, Synthetic Example 2, Synthetic Example 10 or Synthetic Example 11 dissolved in DMSO (Dimethyl Sulfoxide) in an amount of thousandths of the medium, and the mixture was cultured for 3 days. A medium adjusted to have the same concentration of the identical compound was added to each well in a two-fold volume, followed by an additional culture for 4 days. Cells were harvested for each of the samples, and total cellular RNA was purified. For the RNA purification, ISOGEN (NIPPON GENE, 311-02501) was used. In order to quantitatively determine an HCV RNA genome in the purified RNA, the following operation was carried out.
Using 1 μg of the purified RNA, a reverse transcription reaction was performed in a total volume of 20 uL at 37° C. for 1 hour. Subsequently, an inactivation treatment of the reverse transcriptase was carried out at 100° C. for 30 minutes. SuperScript™ II (Gibco BRL 18064-014) was used as a reverse. transcriptase, and an oligoDNA (Gibco BRL) having 20 bases which are complementary to the sequence of base position 317 through base position 336 of HCV-J strain (Kato, N. et. al. Proc. Natl. Acad. Sci. USA 87, 9524-9528, 1990) was used as a primer.
Product of the reverse transcription reaction was diluted to 3-fold, 10-fold, 30-fold and 100-fold with sterilized and distilled water. First PCR (Polymerase Chain Reaction), (34 cycles of: at 94° C. for 1 minute, at 58° C. for 45 seconds and at 72° C. for 1 minute; and 1 cycle of: at 94° C. for 1 minute, at 58° C. for 1 minute and 40 seconds and at 72° C. for 8 minutes) was performed in a total volume of 50 μL using 3 μL of the diluted product of the reverse transcription reaction. EX-Taq (TAKARA RR001A) was used as a DNA synthetase, while an oligoDNA (GibcoBRL) having 20 bases which correspond to the sequence of base position 71 through base position 90 and an oligoDNA (Gibco BRL) having 20 bases which are complementary to the sequence of base position 317 through base position 336 of HCV-J strain were used as primers. […]

HCV RNA polymerase = molecular target: T1, HCV RNA polymerase (Hepatitis C virus genotype 1b, UniProt Q9WMX2); assay: Inhibitory effect on HCV RNA polymerase activity ([α-32P]UTP incorporation, poly(A)/oligo(U)); type: biochemical; settings: 10 uM UTP, 30° C. for 30 minutes; read-out: 50% inhibitory concentration for HCV RNA polymerase
T1 construct: Expression and purification of HCV RNA polymerase were performed in accordance with known processes; made in house
Method: Inhibitory effect on an HCV RNA polymerase activity of the compounds of Synthetic Example 12, Synthetic Example 13, Synthetic Example 19, Synthetic Example 21 and Synthetic Example 22 described above was measured by the following process.
Expression and purification of HCV RNA polymerase were performed in accordance with known processes (V. Lohman et al., VIROLOGY, 249, 108-118, 1998).
The purified HCV RNA polymerase in an amount of 200 ng was mixed with 100 ng/mL poly(A)RNA (polyadenine RNA) as a template RNA and 25 ng/mL 15-mer oligo(U)RNA (oligouridine having 15 bases, TAKARA Shuzo) as a primer RNA in 50 μL of an aqueous solution containing 20 mM Tris-Cl (pH 7.5), 5 MM MgCl2, 25 mM KCl, 10 uM UTP (Uridine-triphosphate), 0.25 Ci/mL [α-^32P]UTP (Amersham, PB10203). Then, thereto was added the compound of Synthetic Example 12, Synthetic Example 13, Synthetic Example 19, Synthetic Example 21 or Synthetic Example 22, followed by an RNA synthetic reaction at 30° C. for 30 minutes.
After completing the reaction, RNA in the solution was absorbed on DE81 paper (Whattman). Then, [α-^32P]UTP which was not incorporated into the synthesized RNA was washed out with 0.5 M phosphate buffer, and the quantity of [α-^32P]UTP which was incorporated into the synthesized RNA on the DE81 paper was determined on a liquid scintillation counter.
Inhibitory potency of the compounds of Synthetic Example 12, Synthetic Example 13, Synthetic Example 19, Synthetic Example 21 and Synthetic Example 22 was represented by 50% inhibitory concentration when the negative control without HCV RNA polymerase was assumed as 0% while the positive control without the compound was assumed as 100%.

hepatitis C = settings: medical treatment of hepatitis C; cited from earlier work

T1 sequence (Q9WMX2 2420-3010): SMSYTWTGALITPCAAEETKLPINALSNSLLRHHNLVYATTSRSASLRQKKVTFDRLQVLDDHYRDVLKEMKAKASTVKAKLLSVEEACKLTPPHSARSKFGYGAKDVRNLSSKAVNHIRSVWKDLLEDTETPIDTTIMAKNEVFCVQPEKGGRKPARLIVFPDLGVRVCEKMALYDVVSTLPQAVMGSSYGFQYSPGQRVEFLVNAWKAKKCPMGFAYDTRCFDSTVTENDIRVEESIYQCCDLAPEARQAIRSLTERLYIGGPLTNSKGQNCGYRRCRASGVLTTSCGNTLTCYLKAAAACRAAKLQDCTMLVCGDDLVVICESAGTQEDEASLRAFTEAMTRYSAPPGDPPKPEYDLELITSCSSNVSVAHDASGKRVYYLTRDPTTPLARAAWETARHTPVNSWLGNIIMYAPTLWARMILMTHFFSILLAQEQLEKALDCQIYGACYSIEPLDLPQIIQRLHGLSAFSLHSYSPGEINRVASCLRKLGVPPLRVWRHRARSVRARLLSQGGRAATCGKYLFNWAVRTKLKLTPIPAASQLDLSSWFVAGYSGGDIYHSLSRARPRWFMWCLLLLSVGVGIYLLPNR

Compound	yield of total RNA for each of the samples (injury on the cells) (MT-2C cells)	IC50 (HCV RNA polymerase)	also measured
O=c1ccn([C@@H]2O[C@H](CO)[C@@H](F)[C@H]2O)c(=O)[nH]1 [Synthetic Example 1, 3′-deoxy-3′-fluorouridine]	little or no alteration	–	inhibitory activity on proximate viruses of the hepatitis C virus [1]: only a low inhibitory activity; detection limit dilution (fold) of an HCV genome (Hepatitis C Virus (HCV); 1.0 μM added, FIG. 1, negative control detected up to 30-fold or 100-fold dilution): up to 3-fold or 10-fold
O=c1[nH]c(=O)n([C@@H]2O[C@H](CO)[C@@H](F)[C@H]2O)cc1F [Synthetic Example 2, 3′-deoxy-5,3′-difluorouridine]	little or no alteration	–	–
O=c1ccn([C@H]2O[C@@H](CO)[C@H](F)[C@@H]2O)c(=O)[nH]1 [Synthetic Example 10, 1-(3′-deoxy-3′-fluoro-β-L-ribofuranosyl)uracil]	little or no alteration	–	detection of HCV genome in diluted RT product (Hepatitis C Virus (HCV); 1 μM added): could not be detected, except for one sample diluted to 10-fold; detection of HCV genome in diluted RT product (Hepatitis C Virus (HCV); 10 μM added): could not be detected, except for one sample diluted to 10-fold
O=c1[nH]c(=O)n([C@H]2O[C@@H](CO)[C@H](F)[C@@H]2O)cc1F [Synthetic Example 11, 1-(3′-deoxy-5,3′-difluoro-β-L-ribofuranosyl)uracil]	little or no alteration	–	detection of HCV genome in diluted RT product (Hepatitis C Virus (HCV); 1 μM added): could not be detected, except for one sample diluted to 10-fold; detection of HCV genome in diluted RT product (Hepatitis C Virus (HCV); 10 μM added): could not be detected, except for one sample diluted to 10-fold
O=c1ccn([C@@H]2O[C@H](COP(=O)(O)OP(=O)(O)OP(=O)(O)O)[C@@H](F)[C@H]2O)c(=O)[nH]1 [Synthetic Example 12, 3′-deoxy-3′-fluorouridine 5′-triphosphate]	–	0.3 µM	–
O=c1[nH]c(=O)n([C@@H]2O[C@H](COP(=O)(O)OP(=O)(O)OP(=O)(O)O)[C@@H](F)[C@H]2O)cc1F [Synthetic Example 13, 3′-deoxy-5,3′-difluorouridine 5′-triphosphate]	–	1 µM	–
O=c1ccn([C@@H]2O[C@H](COP(=O)(O)OP(=O)(O)OP(=O)(O)O)[C@@H](F)[C@H]2O)c(=S)[nH]1 [Synthetic Example 19, 3′-deoxy-3′-fluoro-2-thiouridine 5′-triphosphate]	–	3 µM	–
O=c1ccn([C@H]2O[C@@H](COP(=O)(O)OP(=O)(O)OP(=O)(O)O)[C@H](F)[C@@H]2O)c(=O)[nH]1 [Synthetic Example 21, 1-(3′-deoxy-3′-fluoro-β-L-ribofuranosyl)uracil 5′-triphosphate]	–	3 µM	–
O=c1[nH]c(=O)n([C@H]2O[C@@H](COP(=O)(O)OP(=O)(O)OP(=O)(O)O)[C@H](F)[C@@H]2O)cc1F [Synthetic Example 22, 1-(3′-deoxy-5,3′-fluoro-β-L-ribofuranosyl)uracil 5′-triphosphate]	–	10 µM	–
interferon	–	–	efficacy (hepatitis C): not more than 30%
